Where two headings read alike, the source gives them in different places.

For the test, the target named is T1, human 5-HT3 receptor (Homo sapiens, UniProt P46098).
T1 sequence (P46098 24-478): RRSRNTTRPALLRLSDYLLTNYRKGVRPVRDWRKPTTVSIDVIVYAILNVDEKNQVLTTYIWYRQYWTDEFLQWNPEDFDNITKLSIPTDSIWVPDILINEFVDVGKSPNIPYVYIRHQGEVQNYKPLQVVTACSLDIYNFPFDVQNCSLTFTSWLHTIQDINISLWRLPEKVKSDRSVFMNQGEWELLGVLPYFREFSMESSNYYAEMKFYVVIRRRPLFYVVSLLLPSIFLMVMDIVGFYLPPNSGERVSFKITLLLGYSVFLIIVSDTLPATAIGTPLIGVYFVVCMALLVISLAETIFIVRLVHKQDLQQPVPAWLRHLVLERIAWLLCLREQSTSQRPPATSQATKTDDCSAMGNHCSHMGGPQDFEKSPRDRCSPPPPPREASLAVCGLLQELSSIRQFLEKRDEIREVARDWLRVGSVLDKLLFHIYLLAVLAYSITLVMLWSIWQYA
Nature of the test: Affinity for human 5-HT3 receptor by scintillation proximity assay (SPA), [9-methyl-3H]BRL-43694 competition. It counts as binding. On the procedure:
The relative affinity of the compound to human 5-HT3 receptor was detected by scintillation proximity assay (SPA). The specific procedures were as follows: the test compound was diluted to 10 mM with 100% DMSO, and then subjected to 10× gradient dilution with 100% DMSO in a 96-well plate, and each of the resultant solution was further diluted with the test buffer to provide 4× test concentration. The sample, 10 nM of [9-methyl-3H]BRL-43694, 3 μg of human 5-HT3 receptor membrane, and 0.5 mg/mL of SPA beads were incubated in 50 mM Tris-HCl (pH 7.5, 3 mM MgCl2, 1 mM EDTA and 10% DMSO), with a final volume of 0.2 mL. By successively adding 50 μL of competitive test compound or buffer, SPA beads, radioactive ligands and 5-HT3 receptor membrane, the binding reaction was performed in the wells of PicoPlates-96 well plate. After it was stirred and incubated overnight at room temperature, the plate was centrifuged at 1500 rpm for 15 min, and then incubated in dark for 30 min. Finally, the 5-min radioactivity was read in the TopCount microplate counter. Total binding control only contained the above buffer used to dilute the test compound, while the nonspecific binding was determined at the presence of 30 μM MDL-72222, and thus the specific binding was deduced by the total binding control minus the nonspecific binding. All experiments were carried out by ten concentrations of competitive ligand, and each group was established multiple holes. ALB-137391 was used as positive control.
ALB-137391 was a 5-HT3 receptor partial agonist, and provided by AMRI company, USA, with a production batch number of 1631-B-R0-01-43-01. The structure was as follows:
The half inhibitory concentration (IC50) was determined from the specific binding data by using XLfit4.1 curve fitting software of IDBS Ltd.
Inhibition constant Ki=IC50/(1+(L/KD)), wherein L=the concentration of radioactive ligands in the test, KD=the affinity of radioactive ligands to receptors.
On the technique in general: In a scintillation proximity assay essentially only radioactivity close to the scintillant gives light.

By IC50 is commonly meant the point on the concentration scale where inhibition reaches its midpoint. Usually Ki stands for the equilibrium dissociation constant of an inhibitor or competing ligand from its target. A high value points to a looser hold on the target. For the molecule `O=C1c2cccc3[nH]nc(c23)CCN1[C@@H]1CN2CCC1CC2` [ALB-137391, reference compound], the IC50 amounted to 4.48 nM and the Ki turned out to be 0.81 nM.
`O=C1c2ccc(Br)c3[nH]nc(c23)CCN1[C@@H]1CN2CCC1CC2` [Compound 10, (S)-3-bromo-7-(quinuclidin-3-yl)-2,7,8,9-tetrahydro-6H-azepino[5,4,3-cd]indazole-6-one] gave an IC50 of 34.2 nM and a Ki of 6.2 nM. Also, the “affinity to human 5-HT3 receptor (in words)” value (shortened to “affinity … (in words)”) (summary of Table 1) is listed as “strong affinity”.
With `N#Cc1ccc2c3c(n[nH]c13)CCN([C@@H]1CN3CCC1CC3)C2=O` [Compound 11, (S)-3-cyano-7-(quinuclidin-3-yl)-2,7,8,9-tetrahydro-6H-azepino[5,4,3-cd]indazole-6-one], the affinity corresponds to a Ki of 65.1 nM. Moreover, the IC50 (human 5-HT3 receptor membrane, 10 nM [9-methyl-3H]BRL-43694, SPA, overnight at room temperature, read-out: IC50) was 359 nM.
Consider `O=C1c2ccc(O)c3[nH]nc(c23)CCN1[C@@H]1CN2CCC1CC2` [Compound 12, (S)-3-hydroxyl-7-(quinuclidin-3-yl)-2,7,8,9-tetrahydro-6H-azepino[5,4,3-cd]indazole-6-one], for which the IC50 is 14 nM and the inhibitory constant (Ki) turned out to be 2.53 nM. Further, the “affinity … (in words)” value (summary of Table 1) was “strong affinity”.
For `[2H]c1ccc2c3c(n[nH]c13)CCN([C@@H]1CN3CCC1CC3)C2=O` [Compound 13, (S)-3-deutero-7-(quinuclidin-3-yl)-2,7,8,9-tetrahydro-6H-azepino[5,4,3-cd]indazole-6-one], the IC50 is 3.31 nM and the Ki was 0.6 nM. Also, where the note is “summary of Table 1”, the “affinity and inhibitory effect on 5-HT3 receptor compared with positive control ALB-137391” value is given as “even better than that of positive control ALB-137391”; the “affinity … (in words)” value is “strong affinity”.
Take `O=C1c2ccc(F)c3[nH]nc(c23)CCN1[C@@H]1CN2CCC1CC2` [Compound 14, (S)-3-fluoro-7-(quinuclidin-3-yl)-2,7,8,9-tetrahydro-6H-azepino[5,4,3-cd]indazole-6-one]: the IC50 was found to be 74 nM and the affinity corresponds to a Ki of 13.4 nM. Further, for the setting “summary of Table 1”, the “affinity … (in words)” value was “strong affinity”.
Molecule `O=C1c2ccc(Cl)c3[nH]nc(c23)CCN1[C@@H]1CN2CCC1CC2` [Compound 15, (S)-3-chloro-7-(quinuclidin-3-yl)-2,7,8,9-tetrahydro-6H-azepino[5,4,3-cd]indazole-6-one] came in with an IC50 of 47.1 nM and a Ki of 8.53 nM. Also, the “affinity … (in words)” value (summary of Table 1) is “strong affinity”.

These data come from patent publication US20220194962A1, “AZAZINOINDAZOLE DERIVATIVE, PREPARATION METHOD THEREFOR AND USE THEREOF” (CHENGDU SCIMOUNT PHARMATECH CO., LTD., priority 2019, published 2022).
